The source of these data is patent publication US11524938B2, “Aromatic sulfonamide derivatives” (Bayer Pharma Aktiengesellschaft, priority 2016, dated 2022).

For this assay, the target named is T1, human P2X4 (Homo sapiens, UniProt Q99571).
T1 sequence (Q99571 1-388): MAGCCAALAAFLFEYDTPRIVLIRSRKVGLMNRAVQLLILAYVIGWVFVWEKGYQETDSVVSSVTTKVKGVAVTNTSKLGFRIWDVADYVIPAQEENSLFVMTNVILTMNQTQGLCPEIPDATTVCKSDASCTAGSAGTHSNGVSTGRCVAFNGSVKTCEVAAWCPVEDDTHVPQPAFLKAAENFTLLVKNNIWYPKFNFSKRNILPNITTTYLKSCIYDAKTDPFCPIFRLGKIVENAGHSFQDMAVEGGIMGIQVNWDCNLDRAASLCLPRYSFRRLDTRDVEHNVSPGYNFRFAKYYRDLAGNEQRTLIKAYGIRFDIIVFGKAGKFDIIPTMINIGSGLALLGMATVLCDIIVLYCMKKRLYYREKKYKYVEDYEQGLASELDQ
In words: Human P2X4 HEK Cell FLIPR Assay. Type of assay: cell-based. The conditions noted are these: agonist Bz-ATP at EC80; for Emax: HEK293, HEK293 cells, percentage of maximal inhibition, read-out: Human P2X4 HEK Cells (FLIPR Assay) avg Efficacy [%]; for IC50: HEK293 cells, individual values listed where some fall outside detection range. The method in brief: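 Calcium flux read by FLIPR for 120 sec after Bz-ATP challenge at EC80 (established each assay day), following 30 min room-temperature compound preincubation in dye-loaded stable human P2X4 HEK293 cells. Peak RFU over basal normalized to agonist control; IC50, maximal inhibition and Hill coefficient from triplicate means.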

With `NS(=O)(=O)c1cc(NC(=O)Cc2ccccc2Cl)ccc1-c1cnc(C2CC2)nc1` [Example 308, 2-(2-Chlorophenyl)-N-[4-(2-cyclopropylpyrimidin-5-yl)-3-sulfamoylphenyl]acetamide], the Emax was determined as 91% and the IC50 worked out at 64 nM.
For `CCOc1ncc(-c2ccc(NC(=O)Cc3ccccc3Cl)cc2S(N)(=O)=O)cn1` [Example 309, 2-(2-Chlorophenyl)-N-[4-(2-ethoxypyrimidin-5-yl)-3-sulfamoylphenyl]acetamide], in that order: 93% and 317 nM.
For `CC(C)Nc1ncc(-c2ccc(NC(=O)Cc3ccccc3Cl)cc2S(N)(=O)=O)cn1` [Example 310, 2-(2-Chlorophenyl)-N-{4-[2-(propan-2-ylamino)pyrimidin-5-yl]-3-sulfamoylphenyl}acetamide], in that order: 59% and 86 nM.
For the compound `CC(C)Oc1ncc(-c2ccc(NC(=O)Cc3ccccc3Cl)cc2S(N)(=O)=O)cn1` [Example 311, 2-(2-Chlorophenyl)-N-{4-[2-(propan-2-yloxy)pyrimidin-5-yl]-3-sulfamoylphenyl}acetamide], the Emax came out at 104% and the IC50 was determined as 285 nM.
For `CCNc1ncc(-c2ccc(NC(=O)Cc3ccccc3Cl)cc2S(N)(=O)=O)cn1` [Example 312, 2-(2-Chlorophenyl)-N-{4-[2-(ethylamino)pyrimidin-5-yl]-3-sulfamoylphenyl}-acetamide] the same measures were 69% and 37 nM.
In the case of `Cc1ncc(-c2ccc(NC(=O)Cc3ccccc3Cl)cc2S(N)(=O)=O)cn1` [Example 313, 2-(2-Chlorophenyl)-N-[4-(2-methylpyrimidin-5-yl)-3-sulfamoylphenyl]acetamide], the Emax is 82% and the IC50 was found to be 713 nM.
For `CCCNc1ncc(-c2ccc(NC(=O)Cc3ccccc3Cl)cc2S(N)(=O)=O)cn1` [Example 314, 2-(2-Chlorophenyl)-N-{4-[2-(propylamino)pyrimidin-5-yl]-3-sulfamoylphenyl}-acetamide], in that order: 83% and 27 nM.
For `NS(=O)(=O)c1cc(NC(=O)Cc2ccccc2Cl)ccc1-c1cnc(NCC(F)(F)F)nc1` [Example 315, 2-(2-Chlorophenyl)-N-(3-sulfamoyl-4-{2-[(2,2,2-trifluoroethyl)amino]pyrimidin-5-yl}phenyl)acetamide] the same measures were 81% and 34 nM.
For `NS(=O)(=O)c1cc(NC(=O)Cc2ccccc2Cl)ccc1-c1cnc(OC2CCC2)nc1` [Example 316, 2-(2-Chlorophenyl)-N-{4-[2-(cyclobutyloxy)pyrimidin-5-yl]-3-sulfamoylphenyl}acetamide], in that order: 86% and 362 nM.
Regarding `Cc1nc(Cl)ncc1-c1ccc(NC(=O)Cc2ccccc2Cl)cc1S(N)(=O)=O` [Example 317, N-[4-(2-Chloro-4-methylpyrimidin-5-yl)-3-sulfamoylphenyl]-2-(2-chlorophenyl)acetamide], the Emax was determined as 68% and the 50% inhibitory concentration (IC50) was determined as 1210 nM.
For `NS(=O)(=O)c1cc(NC(=O)Cc2ccccc2Cl)ccc1-c1cc(C(F)(F)F)ccn1` [Example 318, 2-(2-Chlorophenyl)-N-{3-sulfamoyl-4-[4-(trifluoromethyl)pyridin-2-yl]phenyl}acetamide] the same measures were 43% and over 25000 nM.
For `NS(=O)(=O)c1cc(NC(=O)Cc2ccccc2Cl)ccc1-c1ccc(Cl)cn1` [Example 319, 2-(2-Chlorophenyl)-N-[4-(5-chloropyridin-2-yl)-3-sulfamoylphenyl]acetamide], in that order: 73% and 7280 nM.
For `Cc1nc(-c2ccc(NC(=O)Cc3ccccc3Cl)cc2S(N)(=O)=O)cn1C` [Example 320, 2-(2-Chlorophenyl)-N-[4-(1,2-dimethyl-1H-imidazol-4-yl)-3-sulfamoylphenyl]acetamide] the same measures were 51% and over 25000 nM.
For `NS(=O)(=O)c1cc(NC(=O)Cc2ccccc2Cl)ccc1-c1cncc(N2CCCC2)c1` [Example 322, 2-(2-Chlorophenyl)-N-{4-[5-(pyrrolidin-1-yl)pyridin-3-yl]-3-sulfamoylphenyl}acetamide], the Emax is 81% and the IC50 was 186 nM.
With `NS(=O)(=O)c1cc(NC(=O)C(O)c2ccccc2Cl)ccc1-c1cnn(C2CC2)c1` (centres unmarked) [Example 323, 2-(2-Chlorophenyl)-N-[4-(1-cyclopropyl-1H-pyrazol-4-yl)-3-sulfamoylphenyl]-2-hydroxyethanamide], the Emax was determined as 81% and the IC50 came to 2580 nM.
On to `NS(=O)(=O)c1cc(NC(=O)C(O)c2ccccc2Cl)ccc1-c1cnn(C(F)F)c1` (centres unmarked) [Example 324, 2-(2-Chlorophenyl)-N-{4-[1-(difluoromethyl)-1H-pyrazol-4-yl]-3-sulfamoylphenyl}-2-hydroxyethanamide], for which the Emax stood at 59% and the IC50 came to 3050 nM.
Take `NS(=O)(=O)c1cc(NC(=O)Cc2ccccc2Cl)ccc1-c1cncc(Cl)c1` [Example 325, 2-(2-Chlorophenyl)-N-[4-(5-chloropyridin-3-yl)-3-sulfamoylphenyl]acetamide]: the Emax is 94% and the IC50 amounted to 9 nM.
Take `NS(=O)(=O)c1cc(NC(=O)Cc2ccccc2Cl)ccc1-c1cncc(F)c1` [Example 327, 2-(2-Chlorophenyl)-N-[4-(5-fluoropyridin-3-yl)-3-sulfamoylphenyl]acetamide]: the Emax is 94% and the half-maximal inhibitory concentration (IC50) came to 11 nM.
For `CC(C)Cn1cc(-c2ccc(NC(=O)Cc3ccccc3Cl)cc2S(N)(=O)=O)cn1` [Example 328, 2-(2-Chlorophenyl)-N-{4-[1-(2-methylpropyl)-1H-pyrazol-4-yl]-3-sulfamoylphenyl}acetamide] the same measures were 94% and 12 nM.
For `NS(=O)(=O)c1cc(NC(=O)Cc2ccccc2Cl)ccc1-c1cnn(C2CCCC2)c1` [Example 329, 2-(2-Chlorophenyl)-N-[4-(1-cyclopentyl-1H-pyrazol-4-yl)-3-sulfamoylphenyl]acetamide], in that order: 100% and 13 nM.
For `CC(C)Oc1cccc(-c2ccc(NC(=O)Cc3ccccc3Cl)cc2S(N)(=O)=O)c1F` [Example 330, 2-(2-Chlorophenyl)-N-[2′-fluoro-3′-(propan-2-yloxy)-2-sulfamoylbiphenyl-4-yl]-acetamide], in that order: 101% and 14 nM.
As for `NS(=O)(=O)c1cc(NC(=O)Cc2ccccc2Cl)ccc1-c1cncc(C(F)(F)F)c1` [Example 331, 2-(2-Chlorophenyl)-N-{3-sulfamoyl-4-[5-(trifluoromethyl)pyridin-3-yl]phenyl}-acetamide], the Emax was found to be 66%.
As to `COc1cc(-c2ccc(NC(=O)Cc3ccccc3Cl)cc2S(N)(=O)=O)cnc1Cl` [Example 332, N-[4-(6-Chloro-5-methoxypyridin-3-yl)-3-sulfamoylphenyl]-2-(2-chlorophenyl)-acetamide], the Emax stood at 89% and the half-inhibitory concentration (IC50) was 326 nM.
On to `NS(=O)(=O)c1cc(NC(=O)Cc2c(F)cccc2Cl)ccc1-c1cnn(C2CC2)c1` [Example 333, 2-(2-Chloro-6-fluorophenyl)-N-[4-(1-cyclopropyl-1H-pyrazol-4-yl)-3-sulfamoylphenyl]acetamide], for which the Emax came out at 101% and the IC50 came out at 15 nM.
Take `Cn1cc(-c2ccc(NC(=O)Cc3cccc(F)c3Cl)cc2S(N)(=O)=O)cn1` [Example 334, 2-(2-Chloro-3-fluorophenyl)-N-[4-(1-methyl-1H-pyrazol-4-yl)-3-sulfamoylphenyl]-acetamide]: the Emax is 98% and the IC50 is 18 nM.
On to `CC(C)(C)n1cc(-c2ccc(NC(=O)Cc3ccccc3Cl)cc2S(N)(=O)=O)cn1` [Example 335, N-[4-(1-tert-Butyl-1H-pyrazol-4-yl)-3-sulfamoylphenyl]-2-(2-chlorophenyl)acetamide], for which the Emax turned out to be 98% and the IC50 came to 20 nM.
For `CC(C)Oc1ncccc1-c1ccc(NC(=O)Cc2ccccc2Cl)cc1S(N)(=O)=O` [Example 336, 2-(2-Chlorophenyl)-N-{4-[2-(propan-2-yloxy)pyridin-3-yl]-3-sulfamoylphenyl}acetamide] the same measures were 109% and 28 nM.
For `NS(=O)(=O)c1cc(NC(=O)Cc2cccc(F)c2Cl)ccc1-c1cnn(C2CC2)c1` [Example 337, 2-(2-Chloro-3-fluorophenyl)-N-[4-(1-cyclopropyl-1H-pyrazol-4-yl)-3-sulfamoylphenyl]acetamide], in that order: 96% and 30 nM.
As for `NS(=O)(=O)c1cc(NC(=O)Cc2ccccc2F)ccc1-c1cccnc1` [Example 338, 2-(2-Fluorophenyl)-N-[4-(pyridin-3-yl)-3-sulfamoylphenyl]acetamide], the Emax amounted to 91% and the IC50 was determined as 32 nM.
For `Cn1cc(-c2ccc(NC(=O)Cc3c(F)cccc3Cl)cc2S(N)(=O)=O)cn1` [Example 339, 2-(2-Chloro-6-fluorophenyl)-N-[4-(1-methyl-1H-pyrazol-4-yl)-3-sulfamoylphenyl]-acetamide] the same measures were 92% and 33 nM.
